Literature values as cited in patent publication US7286970B2, “Computational model, method, and system for kinetically-tailoring multi-drug chemotherapy for individuals” (The Regents of the University of California, priority 2002, dated 2007).
Marks after values point to notes of the source that are not given here.

Conditions: for Plasma Half-life: in vivo

| Compound | half-life | Plasma Half-life |
| --- | --- | --- |
| O=c1[nH]cc(F)c(=O)[nH]1 [5-Fluorouracil, 5-fluorouracil] | about 15 min | – |
| O=P1(N(CCCl)CCCl)NCCCO1 (centres unmarked) [Cyclophosphamide, cyclophosphamide] | – | 4^d h |

Second part, the molecule after the results:

| half-life | Plasma Half-life | Compound |
| --- | --- | --- |
| – | 25^d h | COc1cccc2c1C(=O)c1c(O)c3c(c(O)c1C2=O)C[C@@](O)(C(=O)CO)C[C@@H]3O[C@H]1C[C@H](N)[C@H](O)[C@H](C)O1 [Doxorubicin, doxorubicin] |
| – | 8^d h | CN(Cc1cnc2nc(N)nc(N)c2n1)c1ccc(C(=O)N[C@@H](CCC(=O)O)C(=O)O)cc1 [Methotrexate, methotrexate] |
| – | 10^e h | CC/C(=C(\c1ccccc1)c1ccc(OCCN(C)C)cc1)c1ccccc1 [Tamoxifen, tamoxifen] |
